# “Also recorded” adds a separate entry of the source.
# Columns and labels:
# [1] = tested on: Human red blood cells (RBCs); experiment: Hemolysis assay; type: cell-based; settings: endosomal pH 5.5, 37 C, one hour
# Description: Human red blood cells (RBCs, Innovative Research) were washed twice with 1×PBS and diluted in either 1×PBS or citrate buffer saline at pH 5.5 (CBS, 20 mM citrate buffer, 130 mM NaCl) to a 4% v/v RBC solution. In a v-bottom, 96-well plate, 100 μL of blank LNPs formulated at an equivalent concentration of 23.75 ng siRNA/μL (no siRNA was used) were added to 100 μL of the 4% v/v RBC solution in either PBS or CBS and heated to 37° C. for one hour. After cooling, the plate was centrifuged at 4° C. at 1000×g for 5 minutes. 100 μL of the supernatant was transferred into a clear 96-well assay plate and the UV absorption was read 540 nm. Positive and negative control experiments were carried out with 0.1% Triton-X (100%) and buffer alone, respectively.
# HeLa cells [2] = experiment: Confocal microscopy of LNPs with FRET-labeled siRNA probes; type: cell-based; settings: 50 ng FRET-labeled probes, one hour
# Description: HeLa cells were seeded at 1.5×10^4 cells per well in black (clear bottom) 96-well plates (Greiner Bio-one) and incubated for 24 hours prior to transfection. The cells were then transfected with the inventive LNPs containing 50 ng of FRET-labeled probes for one hour. The cells were washed, fixed, and counterstained in PBS containing Hoechst (2 μg/mL) for nuclei identification. The cells were then imaged using an automated spinning disk confocal microscope (OPERA, Perkin Elmer) with a 40× objective. The exposure rates were maintained constant for individual fluorophores across the 96-well plate. The images were acquired from the Acapella software with a 20 μm scale bar.
# [3] = 6-p-toluidinyl-naphthalene-2-sulfonate (TNS) assay, apparent pKa of the LNPs; type: physicochemical; settings: TNS fluorescence titration pH 2.5 to 8.5, fully formulated LNP
# Description: 6-p-toluidinyl-naphthalene-2-sulfonate (TNS) Assay
# A series of buffers with pH ranging between 2.5 and 8.5 were prepared by adjusting the pH of a solution containing 10 mM citrate, 10 mM phosphate, 10 mM borate, and 150 mM NaCl with 1N HCl. 90 μL of each buffer solution was added to a 96-well plate. A 300 μM stock solution of TNS was prepared in DMSO and 2 μL of this solution was added to the buffer solutions in the 96 well plate. After formulation, 10 μL of an LNP solution (prepared without siRNA) was added to the above mixture such that the synthesized lipid concentration (not co-lipids) in the final mixture was […]. The fluorescence of the resulting solution was obtained on a Tecan Safire 2 Microplate reader using an excitation wavelength of 325 nm and an emission wavelength of 435 nm. The fluorescence signal was plotted against pH and fitted using a three-parameter logistic equation (GraphPad Prism v.5.0a, GraphPad Software, San Diego Calif. USA). The pH value at which half of the maximum fluorescence is reached was reported as the apparent pKa of the LNPs.
# [4] = tested on: HeLa cells stably modified to constitutively express both firefly and Renilla luciferases; experiment: In vitro transfection: firefly luciferase silencing by LNP-siRNA (Dual-Glo); type: cell-based; settings: LNPs with anti-firefly luciferase siRNA, serum containing media, 24 hours
# Description: Lipid nanoparticles were formulated by mixing an equal volume of an ethanolic solution of a lipid of the invention (e.g., a compound of the invention) and an […] at pH 3 to give a 5:1 synthesized lipid:siRNA ratio. The resulting solution was then diluted in an equal volume of 1× phosphate-buffered saline (PBS). The ethanolic lipid solution contained a mixture of synthesized lipids, cholesterol (Sigma Aldrich), 1,2-distearoyl-sn-glycero-3-phosphocholine (DSPC, Avanti Polar Lipids, Alabaster, Ala.) and mPEG2000-DMG (MW 2660, Alnylam Pharmaceuticals, Cambridge, Mass.) at a molar ratio of 50:38.5:10:1.5 in 200-proof ethanol. For all studies, the ethanolic lipid and siRNA solutions were hand mixed via pipette. The LNPs for in vivo use were also dialyzed for 75 minutes against 1×PBS in 3500 MW cut-off (MWCO) cassettes (Pierce/Thermo Scientific, Rockford, Ill.) prior to use.
# In vitro transfection was performed on HeLa cells stably modified to constitutively express both firefly and Renilla luciferases. Cells were maintained at 37° C. in a 5% CO2 atmosphere in high glucose Dulbelco modified Eagles medium without phenol red (Invitrogen, Carlsbad, Calif.) supplemented with 10% fetal bovine serum (FBS, Invitrogen). Prior to transfection, 15,000 cells were seeded in white 96-well plates and allowed to attach overnight. On the day of transfection, the media was replaced with 90 μL of fresh media. LNPs were formulated at a concentration of 10 ng/μL and diluted with 1×PBS to obtain the desired concentration. For example, to achieve a transfection of 25 ng of siRNA per well, the 10 ng/μL stock was diluted 1:4 to give 2.5 ng/μL, and 10 μL of this solution was added to the cells in 90 μL of media. Lipofectamine (RNAiMAX) was used according to the manufacturer's instructions as a positive control. Relative firefly luciferase silencing was assessed approximately 24 hours after LNP addition using a Dual-Glo luciferase assay kit (Promega, Madison, Wis.). The firefly luciferase values were normalized to the Renilla luciferase values in order to correct for potential toxicity and/or off-target effects. All experiments were carried out in sextuplicates.
# [5] = Dynamic light scattering, particle size; type: physicochemical
# Description: After formulation, the LNPs-siRNA were diluted with 1×PBS to a final siRNA concentration of 2 μg/mL. The average particle size was measured via dynamic light scattering on a Malvern Zetasizer Nano ZS (Malvern Instruments, Worcestershire, UK). All experiments were carried out in triplicates.
# HeLa cells [6] = experiment: Intracellular FRET with FRET-labeled siRNA probes (flow cytometry); type: cell-based; settings: early time point after transfection
# Description: (§1) Extracellular/Intracellular Fluorescence Resonance Energy Transfer (FRET) Assays and Cellular Uptake
# (§2) LNPs containing an equimolar mixture of siRNAs labeled with Alexa Fluor® 594 and Alexa Fluor® 647 were diluted to 10 ng siRNA/μL with 1×PBS and added to a black 96-well plate pre-plated with 20,000 HeLa cells at 37° C. Control wells contained LNPs with 1% Triton-X. To measure the FRET, the samples were excited at 540 nm, and the fluorescence intensity was read at 690 and 620 nm using a Tecan Safire 2 Microplate reader at 37° C. FRET was determined as the ratio of the fluorescence intensities at 690/620 nm. FRET signals for all LNPs were normalized to that of the control wells. For extracellular FRET experiments, an identical experiment was carried out without cells, and the FRET data obtained were similar. […] The trypsined cells were then neutralized with 120 μL of quenching media (25% cell culture media in 1×PBS) and transferred to a 96-well v-bottom plate and analyzed via flow cytometry. For each sample, 10,000 events were monitored and evaluated by a BD LSR II HTS flow cytometer (BD Bioscience). […] For cell uptake studies, LNPs formulated with just Alexa Fluor® 647 were analyzed using settings for the Alexa Fluor® 647 channel: exciation via a 633 nm (red, HeNe) laser and emission via a 660/20 nm filter.
# HeLa cells [7] = experiment: Cellular uptake of LNPs with Alexa Fluor 647 siRNA (flow cytometry); type: cell-based; settings: two hours incubation, serum containing media
# Description: as §1, §2
Structure (SMILES),LNP pKa [3],"in vitro gene silencing (firefly luciferase, Luc/Ren) [4]",other results
CCCCCCCCCCSCC(COC(=O)CCN(CCC(=O)OCC(CSCCCCCCCCCC)SCCCCCCCCCC)CCN(C)C)SCCCCCCCCCC (centres unmarked) [I-3],,,LNP-mediated hemolysis of RBCs at pH 5.5 [1]: hemolytic; intracellular location of LNPs (HeLa cells [2]): located near the cell membrane and inside endocytic vesicles; also recorded: reside in the endocytic vesicles
CCCCCCCCCCSCC(COC(=O)CCN(CCC(=O)OCC(CSCCCCCCCCCC)SCCCCCCCCCC)CCc1ccccn1)SCCCCCCCCCC (centres unmarked) [I-13],low LNP pKa values,poor gene silencing,
CCCCCCCCCCSCC(COC(=O)CCN(CCC(=O)OCC(CSCCCCCCCCCC)SCCCCCCCCCC)CCC1CCCC1)SCCCCCCCCCC (centres unmarked) [I-18],,poor gene silencing; also recorded: unable to silence the target gene,particle size / nanoparticle formation [5]: able to form nanoparticles
CCCCCCCCCCSCC(COC(=O)CCN(CCCN(CCCC)CCCC)CCC(=O)OCC(CSCCCCCCCCCC)SCCCCCCCCCC)SCCCCCCCCCC (centres unmarked) [I-6],low pKa values,poor gene silencing,"in vitro gene silencing (firefly luciferase, Luc/Ren) ([4]; listed as 6): low gene silencing"
CCCCCCCCCCSCC(COC(=O)CCN(CCCN(CC)CC)CCC(=O)OCC(CSCCCCCCCCCC)SCCCCCCCCCC)SCCCCCCCCCC (centres unmarked) [I-2],,,LNP-mediated hemolysis of RBCs at pH 5.5 [1]: hemolytic; intracellular location of LNPs (HeLa cells [2]): located near the cell membrane and inside endocytic vesicles; also recorded: reside in the endocytic vesicles
CCCCCCCCCCSCC(COC(=O)CCN(CCC(=O)OCC(CSCCCCCCCCCC)SCCCCCCCCCC)CCN(C(C)C)C(C)C)SCCCCCCCCCC (centres unmarked) [I-4],low pKa values,poor gene silencing; also recorded: limited gene silencing performance,"intracellular FRET signal (uptake of intact LNPs) (HeLa cells [6]): did not give an intracellular FRET signal; cellular uptake (HeLa cells [7]): relatively high uptake; in vitro gene silencing (firefly luciferase, Luc/Ren) ([4]; listed as 4): low gene silencing"

# Now from value to compound, other results behind:
LNP pKa [3],Structure (SMILES),"in vitro gene silencing (firefly luciferase, Luc/Ren) [4]",other results
low LNP pKa values,CCCCCCCCCCSCC(COC(=O)CCN(CCCn1ccnc1)CCC(=O)OCC(CSCCCCCCCCCC)SCCCCCCCCCC)SCCCCCCCCCC (centres unmarked) [I-20],poor gene silencing,
low LNP pKa values,CCCCCCCCCCSCC(COC(=O)CCN(CCC(=O)OCC(CSCCCCCCCCCC)SCCCCCCCCCC)C1CCN(Cc2ccccc2)CC1)SCCCCCCCCCC (centres unmarked) [I-29],poor gene silencing,
low pKa values,CCCCCCCCCCSCC(COC(=O)CCN(CCCN1CCCN(C)CC1)CCC(=O)OCC(CSCCCCCCCCCC)SCCCCCCCCCC)SCCCCCCCCCC (centres unmarked) [I-21],poor gene silencing,"in vitro gene silencing (firefly luciferase, Luc/Ren) ([4]; listed as 21): low gene silencing"
low LNP pKa values,CCCCCCCCCCSCC(COC(=O)CCN(CCC(=O)OCC(CSCCCCCCCCCC)SCCCCCCCCCC)C1CCN(Cc2ccccc2)C1)SCCCCCCCCCC (centres unmarked) [I-30],poor gene silencing,
low LNP pKa values,CCCCCCCCCCSCC(COC(=O)CCN(CCC(=O)OCC(CSCCCCCCCCCC)SCCCCCCCCCC)CCN1CCS(=O)(=O)CC1)SCCCCCCCCCC (centres unmarked) [I-28],limited gene silencing performance,intracellular FRET signal (uptake of intact LNPs) (HeLa cells [6]): did not give an intracellular FRET signal; cellular uptake (HeLa cells [7]): relatively high uptake
